One experiment has as its system Writhing Mouse. The experiment in a line: Writhing Assay (phenylbenzoquinone). Particulars: 30 min before phenylbenzoquinone i.p., Active refers to the effect of the screening dose; for Writhing Mouse, Oral: screening dose 10 mg/kg p.o. (intragastric); for Writhing Mouse, Subc.: screening dose 10 mg/kg s.c. The class given is in vivo, mice. How it is done: Male Charles River albino mice (CD-1/HAM/1LR) weighing between 20 and 30 grams were used. Thirty minutes after subcutaneous or intragastric administration of the test compound (0.1 mg/10 gram body weight), 0.025% (w/v) phenylbenzoquinone was injected intraperitoneally (0.1 ml/10 gram body weight). Five minutes later, each mouse was placed in a large glass beaker and the number of writhes that occurred in the subsequent ten minutes is counted. A writhe consisted of dorsoflexion of the back, extension of the hindlimbs, and strong contraction of the abdominal musculature. The test compound was considered to have produced analgesia in a mouse if the number of writhes elicited by phenylbenzoquinone was equal to or less than one-half the median number of writhes recorded for the saline-treated group that day. The results were expressed as the number of mice (out of a possible ten) in which the test compound produced analgesia.
(Writhing tests count abdominal constrictions after an irritant is injected.)

The test system of experiment [1] is opiate receptors isolated from rat brain. The class given is binding. Particulars: 1 nM 3H-Naloxone, rat brain receptor membranes, screening concentration 10^-5 molar.
Another experiment deals with rat. Particulars: injected directly into the brain of the rat; cited from earlier work.

“2,6-dimethyltyrosyl-N-(2,3-dihydro-1H-inden-2-yl)-D-alaninamide, monohydrochloride [Example 24]”: in the experiment with Writhing Mouse, the “Writhing Mouse, Oral” value was “Inactive” and the “Writhing Mouse, Subc.” value is on record as “Lethal”.
“2,6-dimethyltyrosyl-N-(6-methoxy-6-oxohexyl)-D-alaninamide, monohydrochloride [Example 5]”: in the experiment on Writhing Mouse, the “Writhing Mouse, Oral” value is on record as “Inactive” and the “Writhing Mouse, Subc.” value was “Inactive”.
Turning to “2,6-dimethyltyrosyl-N-(6-methoxy-6-oxohexyl)-D-alaninamide, monohydrochloride [Example 7]”, in the experiment with Writhing Mouse, the “Writhing Mouse, Oral” value is reported as “Inactive” and the “Writhing Mouse, Subc.” value is “Inactive”.
“2,6-dimethyltyrosyl-N-[3-(2-thienyl)-2E-propenyl]-D-alaninamide, monohydrochloride [Example 52]”: in the experiment on Writhing Mouse, the “Writhing Mouse, Oral” value is “Inactive” and the “Writhing Mouse, Subc.” value is given as “Active”.
Taken in the same sequence, the figures for “2,6-dimethyltyrosyl-N-[3-(2-thienyl)propyl]-D-alaninamide, monohydrochloride [Example 47]” were “Active” and “Active”.
The corresponding values for “2,6-dimethyltyrosyl-N-[3-(3-thienyl)-2E-propenyl]-D-alaninamide, monohydrochloride [Example 58]” are “Inactive” and “Active”.
Turning to “2-(2R-amino-1-oxopropyl)-1,2,3,4-tetrahydroisoquinoline, monohydrochloride [Example 32]”, the “Opiate Binding, IC50” value in experiment [1] was “Inactive”. Also, in the experiment on Writhing Mouse, the “Writhing Mouse, Oral” value was “Active” and the “Writhing Mouse, Subc.” value was “Inactive”.
`Cc1cc(O)cc(C)c1CC(NC(=O)OC(C)(C)C)C(=O)N[C@H](C)C(=O)NCCSc1ccccc1` (mixture of isomers) [Example 108, N-[(1,1-dimethylethoxy)carbonyl]-2,6-dimethyl-DL-tyrosyl-N-[2-(phenylthio)ethyl]-D-alaninamide]: in the experiment on Writhing Mouse, the “Writhing Mouse, Oral” value is “Inactive” and the “Writhing Mouse, Subc.” value is reported as “Active”.
Taken in the same sequence, the figures for `Cc1cc(O)cc(C)c1CC(NC(=O)OC(C)(C)C)C(=O)N[C@H](C)C(=O)NCCOc1ccccc1` (mixture of isomers) [Example 115, N-[(1,1-dimethylethoxy)carbonyl]02,6-dimethyl-DL-tyrosyl-N-(2-phenoxyethyl)-D-alaninamide] were “Active” and “Active”.
Taken in the same sequence, the figures for `Cc1cc(O)cc(C)c1C[C@H](N)C(=O)N[C@@H](C)C(=O)N1CCCc2ccccc21.Cl` (relative stereo) [Example 29, αS-R*-amino-4-hydroxy-2,6-dimethyl-N-[1S*-methyl-2-oxo-2-(1,2,3,4-tetrahydro-1-quinolinyl)ethyl]benzenepropanamide, monohydrochloride] were “Inactive” and “Inactive”.
For `Cc1cc(O)cc(C)c1C[C@H](N)C(=O)N[C@H](C)C(=O)N1CCc2ccccc2C1.Cl` (single isomer, unassigned) [Example 35, α-amino-4-hydroxy-2,6-dimethyl-N-[1R-methyl-2-oxo-2-(1,2,3,4-tetrahydro-2-isoquinolinyl)ethyl]benzenepropanamide, monohydrochloride, isomer S], in the experiment on Writhing Mouse, the “Writhing Mouse, Oral” value is recorded as “Active” and the “Writhing Mouse, Subc.” value is given as “Active”.
With `Cc1cc(O)cc(C)c1C[C@H](N)C(=O)N[C@H](C)C(=O)NCCCc1cccs1.Cl` (single isomer, unassigned) [Example 46, 2,6-dimethyltyrosyl-N-[3-(2-thienyl)propyl]-D-alaninamide, monohydrochloride DF isomer], the IC50 (in general, the concentration needed to halve the response being measured) in experiment [1] (read-out: Opiate Binding, IC50) turned out to be 220 nM. For the same molecule, in the experiment on Writhing Mouse, the “Writhing Mouse, Oral” value was “Inactive” and the “Writhing Mouse, Subc.” value is “Inactive”.
On to `C[C@@H](NC(=O)OCc1ccccc1)C(=O)NC1Cc2ccccc2C1` [Example 20, phenylmethyl [2-[(2,3-dihydro-1H-inden-2-yl)amino]-1R-methyl-2-oxoethyl]carbamate], for which the “Opiate Binding, IC50” value in experiment [1] is “Inactive”. In the experiment with Writhing Mouse, the “Writhing Mouse, Oral” value was “Inactive” and the “Writhing Mouse, Subc.” value was “Active”.
Regarding `C[C@@H](N)C(=O)NC1Cc2ccccc2C1` [Example 21, 2R-amino-N-(2,3-dihydro-1H-inden-2-yl)propanamide], the “Opiate Binding, IC50” value in experiment [1] is listed as “Inactive”. Further, in the experiment on Writhing Mouse, the “Writhing Mouse, Oral” value is “Inactive” and the “Writhing Mouse, Subc.” value is given as “Active”.
For `C[C@@H](NC(=O)OCc1ccccc1)C(=O)N1CCCc2ccccc21` [Example 25, phenylmethyl [1R-methyl-2-oxo-2-(1,2,3,4-tetrahydro-1-quinolinyl)ethyl]carbamate], in the experiment on Writhing Mouse, the “Writhing Mouse, Oral” value is “Inactive” and the “Writhing Mouse, Subc.” value is listed as “Inactive”.
Regarding `Cc1cc(O)cc(C)c1CC(N)C(=O)N[C@H](C)C(=O)N1CCCc2ccccc21.Cl` (stereo partly drawn) [Example 30, α-amino-4-hydroxy-2,6-dimethyl-N-[1R-methyl-2-oxo-2-(1,2,3,4-tetrahydro-1-quinolinyl)ethyl]benezenepropanamide, monohydrochloride], in the experiment on Writhing Mouse, the “Writhing Mouse, Oral” value is reported as “Inactive” and the “Writhing Mouse, Subc.” value is on record as “Inactive”.
Take `Cc1cc(O)cc(C)c1C[C@H](N)C(=O)N[C@H](C)C(=O)NCCc1cccs1.Cl` [Example 39, 2,6-dimethyl-L-tyrosyl-N-[2-(2-thienyl)ethyl]-D-alainamide, monohydrochloride]: in the experiment with Writhing Mouse, the “Writhing Mouse, Oral” value is recorded as “Inactive” and the “Writhing Mouse, Subc.” value is listed as “Inactive”.
As to `C[C@@H](N)C(=O)NCCCc1cccs1` [Example 44, 2R-amino-N-[3-(2-thienyl)propyl]propanamide], in experiment [1], the “Opiate Binding, IC50” value is “Inactive”. Besides, in the experiment with Writhing Mouse, the “Writhing Mouse, Oral” value is “Active” and the “Writhing Mouse, Subc.” value is reported as “Active”.
With `COc1ccc(CCCNC(=O)[C@@H](C)N)cc1` [Example 60, αR-amino-N-[3-(4-methoxyphenyl)propyl]propanamide], in the experiment on Writhing Mouse, the “Writhing Mouse, Oral” value is reported as “Active” and the “Writhing Mouse, Subc.” value is reported as “Active”.
Consider `Cc1cc(O)cc(C)c1C[C@H](N)C(=O)N[C@H](C)C(=O)NCCC(c1ccccc1)c1ccccc1.Cl` [Example 73, 2,6-dimethyltyrosyl-N-(3,3-diphenylpropyl)-D-alaninamide, monohydrochloride], for which, in the experiment with Writhing Mouse, the “Writhing Mouse, Oral” value was “Inactive” and the “Writhing Mouse, Subc.” value was “Active”.
Taken in the same sequence, the figures for `Cc1cc(O)cc(C)c1C[C@H](N)C(=O)N[C@H](C)C(=O)NCCSc1ccccc1.Cl` [Example 109, 2,6-dimethyltyrosyl-N-[2-(phenylthio)ethyl]-D-alaninamide, monohydrochloride] were “Inactive” and “Active”.
For methionine enkepthalin, in the experiment on rat, the analgesic activity result is on record as “weak, fleeting analgesic activity”.
Take “α-amino-4-hydroxy-2,6-dimethyl-N-[1R-methyl-2-oxo-2-(1,2,3,4-tetrahydro-2-isoquinolinyl)ethyl]benzenepropanamide, monohydrochloride [Example 37]”: in the experiment with Writhing Mouse, the “Writhing Mouse, Oral” value was “Inactive” and the “Writhing Mouse, Subc.” value is reported as “Inactive”.

Source of the values: patent US4847241A, “Fluorenyl substituted tyrosyl dipeptide amides which are useful in treating pain” (priority 1988, dated 1989).
